Data: PMC8151276, “An Integrated Approach toward NanoBRET Tracers for Analysis of GPCR Ligand Engagement” (Molecules, 2021)

Experiments:
HTR1A = biological target: T1, HTR1A (Homo sapiens, UniProt P08908); assay: NanoBRET screen HiBiT-HTR1A in HEK293; type: binding
T1 construct: purchased Promega (in-house HiBiT-GPCR construct library, NanoBRET)
T1 sequence (P08908 1-422): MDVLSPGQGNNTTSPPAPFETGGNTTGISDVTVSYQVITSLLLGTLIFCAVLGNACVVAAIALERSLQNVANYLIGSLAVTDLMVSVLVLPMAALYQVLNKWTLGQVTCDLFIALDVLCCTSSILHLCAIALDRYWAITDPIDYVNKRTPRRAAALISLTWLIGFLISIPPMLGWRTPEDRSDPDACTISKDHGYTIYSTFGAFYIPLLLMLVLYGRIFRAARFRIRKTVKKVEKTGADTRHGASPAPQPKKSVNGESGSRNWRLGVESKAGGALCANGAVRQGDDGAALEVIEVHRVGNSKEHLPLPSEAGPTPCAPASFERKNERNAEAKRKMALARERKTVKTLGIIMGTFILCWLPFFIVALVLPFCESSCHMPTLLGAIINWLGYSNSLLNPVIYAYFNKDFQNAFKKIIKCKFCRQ
Description: (§1) Each tracer candidate was screened across the entire library of HiBiT-GPCR constructs using NanoBRET as the detection modality. As depicted in Figure 4A, the specificity of interactions was evaluated through decrease in BRET due to competitive displacement of a bound tracer by excess parental compound. Each tracer was analyzed for binding to each HiBiT-GPCR fusion in the absence and in the presence of competing parental compound. Briefly, HEK293 cells were transfected with HiBiT-GPCR constructs diluted into promoterless DNA to reduce expression and maximize translocation to the cell surface. Each tracer candidate was then screened at concentrations of 1 μM and 0.1 μM across cells expressing these fusions. Cells were treated for 1.5 h with tracer either alone or in the presence of 20 μM competing parental compound (i.e., control). BRET was measured upon addition of purified LgBiT and subsequent complementation with HiBiT genetically fused to a GPCR. The specificity of interactions was assessed through a decrease in BRET signal due to competitive displacement of the bound tracer. To further gauge the robustness of these interactions, the fold response over the control (i.e., BRETtracer/BRETcontrol) was calculated. We chose a 1.5-fold response, which translates to ≥7-fold signal over noise as the minimal threshold required to score an interaction as positive.
(§2) HiBiT-GPCR DNA constructs were diluted in 10 mM Tris pH 8 to a final concentration of 0.01 μg/μL, arrayed in 96-well plates and stored at −20 °C. For transfection, HEK293 cells were suspended in Opti-MEM (without phenol red) supplemented with 2% fetal bovine serum (Seradigm) and 100 units/mL penicillin–streptomycin (Gibco) at a final concentration of 220,000 cells/mL and dispensed into white 96-well plates at 90 μL/well. Subsequent transfections and screens were carried using an Agilent Bravo Automated Liquid Handling Platform. First, the 96-well HiBiT DNA arrays were diluted 25-fold in Opti-MEM (without serum or phenol red) to a final concentration of 0.0004 μg/μL and 20 μL of the diluted DNAs were transferred into new 96-well plates. Next, promoterless carrier DNA (1 μg/μL) was diluted 25-fold (0.04 μg/μL) and then dispensed into the diluted arrays at 20 μL/well. Following brief mixing, Viafect transfection reagent (Promega) diluted 16-fold into Opti-MEM was dispensed into the plates at 40 μL/well. After mixing by pipetting, plates were incubated for 10 min on the pipetting station deck. The DNA-transfection reagent complexes were then added to plates containing cells. To facilitate the screen, 10 μL of DNA-transfection reagent complexes were added in duplicates to the top 4 and bottom 4 rows, resulting in two identical 48-well arrays per plate. Plates with transfected cells were incubated for 18–20 h at 37 °C/5% CO2. A screen of each tracer across the entire library using two different concentrations requires duplicate plates of transfected cells. Depending on the number of tracers being screened, transfections can be scaled up using the same ratios. The next day, for each tracer, four 20× screening solutions in tracer dilution buffer (Promega) were prepared: two duplicates at final concentration of 20 μM and two duplicates at a final concentration of 2 μM. […] The four resulting solutions were diluted 4-fold in Opti-MEM without serum or phenol red to generate 5× solutions (5 µM and 0.5 µM tracer +/− 100 μM competing compound). To screen the library, a BioTek MultiFlo FX liquid dispenser was used to dispense 22.5 µL of tracer solution to the top 4 rows and 22.5 µL tracer + competing compound solution to the 4 bottom rows. Plates were briefly mixed on an orbital shaker and incubated for 1.5 h at room temperature. […] Plates were briefly mixed on an orbital shaker and incubated for 15 min to allow complementation.

DRD4 = biological target: T2, DRD4 (Homo sapiens, UniProt P21917); assay: NanoBRET screen HiBiT-DRD4 in HEK293; type: binding
T2 construct: purchased Promega (in-house HiBiT-GPCR construct library, NanoBRET)
T2 sequence (P21917 1-419): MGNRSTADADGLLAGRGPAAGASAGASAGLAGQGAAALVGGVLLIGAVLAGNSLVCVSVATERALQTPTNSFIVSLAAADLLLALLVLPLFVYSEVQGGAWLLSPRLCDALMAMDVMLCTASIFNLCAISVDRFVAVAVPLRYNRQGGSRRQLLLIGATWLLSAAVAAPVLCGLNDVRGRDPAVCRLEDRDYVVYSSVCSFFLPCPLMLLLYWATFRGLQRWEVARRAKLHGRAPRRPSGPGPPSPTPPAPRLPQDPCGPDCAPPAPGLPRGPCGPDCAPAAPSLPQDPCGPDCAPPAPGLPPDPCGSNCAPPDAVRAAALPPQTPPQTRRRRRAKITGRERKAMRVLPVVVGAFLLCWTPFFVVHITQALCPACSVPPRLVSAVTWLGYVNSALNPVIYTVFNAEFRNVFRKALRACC
Description: as §1, §2

[1] = tracer at 0.1μM, listed as amitriptyline-b-2-NB590

Compound	NanoBRET Fold Response (DRD4; DRD4, tracer 0.1μM)	NanoBRET Fold Response (DRD4; DRD4, tracer 1μM)	NanoBRET Fold Response (HTR1A; HTR1A, tracer 0.1μM)	NanoBRET Fold Response (HTR1A; HTR1A, tracer 1μM)	other results
CN1CCN(C2=Nc3cc(Cl)ccc3Nc3ccc(CNC(=O)CCOCCOCCOCCOCCNC(=O)CCc4ccc5n4[B-](F)(F)[N+]4=C(c6ccc[nH]6)C=CC4=C5)cc32)CC1 [Clozapine-b-2-NB590]					NanoBRET Fold Response (HTR1A; HTR1A, 0.1μM tracer): 0.98; NanoBRET Fold Response (HTR1A; HTR1A, 1μM tracer): 1.21
CN(C)CCC=C1c2ccccc2CCc2ccc(C(=O)NCCNC(=O)CCOCCOCCOCCOCCNC(=O)CCc3ccc4n3[B-](F)(F)[N+]3=C(c5ccc[nH]5)C=CC3=C4)cc21 [Amitriptyline-b-2-NB590]					NanoBRET Fold Response (DRD4; [1]): 1.05; NanoBRET Fold Response (HTR1A; [1]): 1.19; NanoBRET Fold Response (HTR1A; tracer at 1μM, listed as amitriptyline-b-2-NB590): 1.02
CCOC(=O)c1cc(C#N)c(N2CCC(C(=O)NS(=O)(=O)Cc3ccccc3/C=C/C(=O)NCCNC(=O)CCc3ccc4n3[B-](F)(F)[N+]3=C(c5ccc[nH]5)C=CC3=C4)CC2)nc1C [AZD1283-1-NB590]					NanoBRET Fold Response (DRD4; DRD4, 0.1μM): 1.05; NanoBRET Fold Response (DRD4; DRD4, 1μM): 1.13; NanoBRET Fold Response (HTR1A; HTR1A, 0.1μM): 0.97; NanoBRET Fold Response (HTR1A; HTR1A, 1μM): 1.04
CC(C)N(CC[C@H](c1ccccc1)c1cc(CCNC(=O)CCOCCOCCOCCOCCNC(=O)CCc2ccc3n2[B-](F)(F)[N+]2=C(c4ccc[nH]4)C=CC2=C3)ccc1O)C(C)C [Tolterodine-2-NB590]	0.99	0.96	1.14	1.06	
CC(C)N(CC[C@H](c1ccccc1)c1cc(CCNC(=O)c2ccc(CNC(=O)CCc3ccc4n3[B-](F)(F)[N+]3=C(c5ccc[nH]5)C=CC3=C4)cc2)ccc1O)C(C)C [Tolterodine-BZ-NB590]	0.94	1.09	1.03	1.12	
O=C(CCOCCOCCOCCOCCNC(=O)CCc1ccc2n1[B-](F)(F)[N+]1=C(c3ccc[nH]3)C=CC1=C2)NCCCN1CCN(C2=Nc3ccccc3Oc3ccc(Cl)cc32)CC1 [Loxapine-a-2-NB590]	1.57	2.56	1.15	1.19	
CN1CCN(C2=Nc3cc(Cl)ccc3N(CC(=O)NCCOCCOCCOCCOCCNC(=O)CCc3ccc4n3[B-](F)(F)[N+]3=C(c5ccc[nH]5)C=CC3=C4)c3ccccc32)CC1 [Clozapine-c-2-NB590]					NanoBRET Fold Response (HTR1A; HTR1A, 1μM tracer): 1.12
CN(C)CCC=C1c2ccccc2CCc2ccc(C(=O)NCCNC(=O)CCOCCOCCOCCOCCNC(=O)CCc3ccc4n3[B-](F)(F)[N+]3=C(c5ccc[nH]5)C=CC3=C4)cc21 [Amitriptyline-a-2-NB590]					NanoBRET Fold Response (DRD4; tracer at 0.1μM): 1.07; NanoBRET Fold Response (DRD4; tracer at 1μM): 1.09; NanoBRET Fold Response (HTR1A; tracer at 0.1μM): 1.33; NanoBRET Fold Response (HTR1A; tracer at 1μM): 1.04
Cc1nc2n(c(=O)c1CCN1CCC(c3noc4cc(F)ccc34)CC1)CCCC2OC(=O)NCCOCCOCCOCCOCCNC(=O)CCc1ccc2n1[B-](F)(F)[N+]1=C(c3ccc[nH]3)C=CC1=C2 (centres unmarked) [Risperidone-2-NB590]	1.55	3.40	1.24	1.15	
COc1ccc2[nH]c(-c3ccc(CNC(=O)CCOCCOCCOCCOCCNC(=O)CCc4ccc5n4[B-](F)(F)[N+]4=C(c6ccc[nH]6)C=CC4=C5)cc3)c(CCNC(C)=O)c2n1 [AzomelatoninICO9-2-NB590]					NanoBRET Fold Response (DRD4; 0.1μM tracer): 0.59; NanoBRET Fold Response (DRD4; 1μM tracer): 0.88; NanoBRET Fold Response (HTR1A; 0.1μM tracer): 0.95; NanoBRET Fold Response (HTR1A; 1μM tracer): 1.15
COc1ccccc1N1CCN(CCCCN2C(=O)c3ccc(CNC(=O)CCOCCOCCOCCOCCNC(=O)CCc4ccc5n4[B-](F)(F)[N+]4=C(c6ccc[nH]6)C=CC4=C5)cc3C2=O)CC1 [NAN-190-2-NB590]	1.09	1.80	2.15	1.76	
O=C(CCc1ccc2n1[B-](F)(F)[N+]1=C(c3ccc[nH]3)C=CC1=C2)NCCOCCOCCNC(=O)OCCOCCN1CCN(C2=Nc3ccccc3Sc3ccccc32)CC1 [Quetiapine-a-2-NB590]	1.05	1.49	1.09	1.04	
O=C(CCOCCOCCOCCOCCNC(=O)CCc1ccc2n1[B-](F)(F)[N+]1=C(c3ccc[nH]3)C=CC1=C2)NCCCN1CCN(C2=Nc3cc(Cl)ccc3Nc3ccccc32)CC1 [Clozapine-a-2-NB590]					NanoBRET Fold Response (DRD4; DRD4, 0.1μM tracer): 3.46; NanoBRET Fold Response (DRD4; DRD4, 1μM tracer): 3.88; NanoBRET Fold Response (HTR1A; HTR1A, 0.1μM tracer): 1.16; NanoBRET Fold Response (HTR1A; HTR1A, 1μM tracer): 0.98
N#CN=C(NCCCOc1cccc(CN2CCCCC2)c1)NCCNC(=O)CCOCCOCCOCCOCCNC(=O)CCc1ccc2n1[B-](F)(F)[N+]1=C(c3ccc[nH]3)C=CC1=C2 [Aminopotentidine-2-NB590]	1.00	0.98	1.04	0.98	
O=C(CCc1ccc2n1[B-](F)(F)[N+]1=C(c3ccc[nH]3)C=CC1=C2)NCc1ccc(C(=O)NCCOCCOCCNCC(O)COc2cccc3ccccc23)cc1 (centres unmarked) [Propranolol-3-NB590]					NanoBRET Fold Response (DRD4; DRD4, 0.1μM): 0.84; NanoBRET Fold Response (DRD4; DRD4, 1μM): 0.99; NanoBRET Fold Response (HTR1A; HTR1A, 0.1μM): 1.38; NanoBRET Fold Response (HTR1A; HTR1A, 1μM): 1.39
O=C(CCc1ccc2n1[B-](F)(F)[N+]1=C(c3ccc[nH]3)C=CC1=C2)NCc1ccc(C(=O)NCCOCCC(=O)N[C@@H]2CC[C@@]3(O)[C@H]4Cc5ccc(O)c6c5[C@@]3(CCN4CC3CC3)[C@H]2O6)cc1 [Naltrexone-3-NB590]	0.82	1.11	0.94	1.03	
COc1ccccc1N1CCN(CCCCN2C(=O)c3ccc(CNC(=O)CCOCCNC(=O)c4ccc(CNC(=O)CCc5ccc6n5[B-](F)(F)[N+]5=C(c7ccc[nH]7)C=CC5=C6)cc4)cc3C2=O)CC1 [NAN-190-3-NB590]	1.23	1.92		1.70	
Cc1cc2c(s1)Nc1ccccc1N=C2N1CCN(CCCNC(=O)CCOCCOCCOCCOCCNC(=O)CCc2ccc3n2[B-](F)(F)[N+]2=C(c4ccc[nH]4)C=CC2=C3)CC1 [Olanzapine-a-2-NB590]	1.68	2.27	0.99	1.06	
